Assays:
[1] = target: T1, soluble guanylate cyclase (sGC) (Rattus norvegicus, UniProt P20595); assay: Stimulation of sGC enzyme activity (PPi/luciferase detection); type: biochemical; settings: sGC enzyme in vitro
T1 construct: made in house; host or cells: baculovirus/Sf9 insect cells
T1 sequence (P20595 1-619): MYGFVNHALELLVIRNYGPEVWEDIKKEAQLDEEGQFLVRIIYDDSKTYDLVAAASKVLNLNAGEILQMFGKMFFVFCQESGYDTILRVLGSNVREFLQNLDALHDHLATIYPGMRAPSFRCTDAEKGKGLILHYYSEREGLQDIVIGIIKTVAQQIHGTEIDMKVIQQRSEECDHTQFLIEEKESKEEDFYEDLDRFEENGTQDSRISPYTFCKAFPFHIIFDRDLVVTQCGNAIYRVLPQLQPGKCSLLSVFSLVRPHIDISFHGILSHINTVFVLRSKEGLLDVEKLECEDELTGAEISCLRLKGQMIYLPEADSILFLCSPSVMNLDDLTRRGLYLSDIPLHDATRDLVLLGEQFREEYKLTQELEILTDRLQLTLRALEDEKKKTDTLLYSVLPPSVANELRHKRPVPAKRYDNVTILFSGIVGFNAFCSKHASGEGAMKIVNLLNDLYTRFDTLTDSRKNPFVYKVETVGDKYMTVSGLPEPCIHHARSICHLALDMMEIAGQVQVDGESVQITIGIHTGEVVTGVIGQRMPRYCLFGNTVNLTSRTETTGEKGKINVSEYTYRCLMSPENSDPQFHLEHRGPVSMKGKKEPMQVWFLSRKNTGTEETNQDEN
T1 sequence (P19686 1-690 partner): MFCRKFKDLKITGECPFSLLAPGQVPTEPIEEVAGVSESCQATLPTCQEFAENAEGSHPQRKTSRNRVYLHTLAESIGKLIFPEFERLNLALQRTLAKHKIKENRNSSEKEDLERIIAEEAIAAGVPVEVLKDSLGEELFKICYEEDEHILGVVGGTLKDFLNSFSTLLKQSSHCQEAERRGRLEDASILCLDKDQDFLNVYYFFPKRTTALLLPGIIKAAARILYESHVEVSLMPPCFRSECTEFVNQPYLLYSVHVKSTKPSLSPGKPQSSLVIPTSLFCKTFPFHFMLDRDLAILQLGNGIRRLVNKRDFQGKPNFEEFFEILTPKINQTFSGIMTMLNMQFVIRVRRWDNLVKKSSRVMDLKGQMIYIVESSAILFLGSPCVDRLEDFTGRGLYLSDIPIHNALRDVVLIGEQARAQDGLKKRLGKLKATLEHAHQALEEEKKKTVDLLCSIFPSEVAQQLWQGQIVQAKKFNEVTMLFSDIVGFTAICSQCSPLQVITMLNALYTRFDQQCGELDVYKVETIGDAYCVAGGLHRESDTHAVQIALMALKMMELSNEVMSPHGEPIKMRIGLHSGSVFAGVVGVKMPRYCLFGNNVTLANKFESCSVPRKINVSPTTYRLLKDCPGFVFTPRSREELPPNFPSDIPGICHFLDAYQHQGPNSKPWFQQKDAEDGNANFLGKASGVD
Procedure: Soluble guanylate cyclase (sGC) converts on stimulation GTP into cGMP and pyrophosphate (PPi). PPi is detected with the aid of the assay described below. The signal produced in the assay increases as the reaction progresses and serves as a measure of the sGC enzyme activity under the given stimulation.
To carry out the assay, 29 μl of enzyme solution [0-10 nM soluble guanylate cyclase (prepared according to Honicka et al., J. Mol. Med. 77, 14-23 (1999)) in 50 mM TEA, 2 mM MgCl2, 0.1% BSA (fraction V), 0.005% Brij®, pH 7.5] are initially introduced into a microplate, and 1 μl of the substance to be tested (as a serially diluted solution in DMSO) is added. The mixture is incubated at room temperature for 10 min. Then 20 μl of detection mix [1.2 nM Firefly Luciferase (Photinus pyralis luciferase, Promega), 29 μM dehydroluciferin (prepared according to Bitler & McElroy, Arch. Biochem. Biophys. 72, 358 (1957)), 122 μM luciferin (Promega), 153 μM ATP (Sigma) and 0.4 mM DTT (Sigma) in 50 mM TEA, 2 mM MgCl2, 0.1% BSA (fraction V), 0.005% Brij®, pH 7.5] are added. The enzyme reaction is started by adding 20 μl of substrate solution [1.25 mM guanosine 5′-triphosphate (Sigma) in 50 mM TEA, 2 mM MgCl2, 0.1% BSA (fraction V), 0.005% Brij®, pH 7.5] and measured continuously in a luminometer. The extent of the stimulation by the substance to be tested can be determined relative to the signal of the unstimulated reaction.
The activation of heme-free guanylate cyclase is examined by addition of 25 μM of 1H-1,2,4-oxadiazolo[4,3-a]quinoxalin-1-one (ODQ) to the enzyme solution and subsequent incubation for 30 minutes and compared to the stimulation of the native enzyme.

[2] = target: T2, Heme-free sGC (Rattus norvegicus, UniProt P20595); assay: Stimulation of recombinant soluble guanylate cyclase in vitro, heme-free enzyme; type: biochemical
T2 construct: made in house; host or cells: baculovirus/Sf9 insect cells
T2 sequence (P20595 1-619): T1 sequence (P20595 1-619)
T2 sequence (P19686 1-690 partner): T1 sequence (P19686 1-690 partner)
Procedure: Investigations on the stimulation of recombinant soluble guanylate cyclase (sGC) by the compounds according to the invention with and without sodium nitroprusside, and with and without the heme-dependent sGC inhibitor 1H-1,2,4-oxadiazolo-(4,3a)-quinoxalin-1-one (ODQ) are carried out by the method described in detail in the following reference: M. Hoenicka, E. M. Becker, H. Apeler, T. Sirichoke, H. Schroeder, R. Gerzer and J.-P. Stasch, “Purified soluble guanylyl cyclase expressed in a baculovirus/Sf9 system: Stimulation by YC-1, nitric oxide, and carbon oxide”, J. Mol. Med. 77 (1999), 14-23. The heme-free guanylate cyclase is obtained by adding Tween 20 to the sample buffer (0.5% in the final concentration).
The activation of sGC by a test substance is reported as n-fold stimulation of the basal activity.

MEC (minimum effective concentration), activating action at the sGC enzyme [1]: 51 nM | Stimulation (n-fold) of heme-free sGC, Basal ([2]; 0.1 μM Example 1): 1.4 n-fold | Stimulation (n-fold) of heme-free sGC, Basal ([2]; 1 μM Example 1): 1.7 n-fold | Stimulation (n-fold) of heme-free sGC, Basal ([2]; 10 μM Example 1): 8.4 n-fold | Stimulation (n-fold) of heme-free sGC, Basal ([2]; 100 μM Example 1): 111.8 n-fold
Compound: O=C(NCCCCC1(C(=O)O)CC1)C(c1ccc(CN2N=C(c3ccccc3)OCC2=O)cc1)C1CCCC1 (single isomer, unassigned; (+)) [Example 1, (+)-1-(4-{[2-cyclopentyl-2-{4-[(5-oxo-2-phenyl-5,6-dihydro-4H-1,3,4-oxadiazin-4-yl)methyl]phenyl}-acetyl]amino}butyl)cyclopropanecarboxylic acid]
